Key:
Type in all cases: cell-based, NOD mice
Splenic cells = experiment: IFNγ response of splenic cells from 14 week old mice; conditions: INSβ peptide 18 μM, Ig-INSβ chimeras 1 μM; 24 hours; no rIL-10
Experimental: (§1) Detection of IL-10 and IFNγ was performed according to BD Pharmingen's standard protocol. The capture Abs were as follows: rat anti-mouse IL-10, JES5-2A5 and rat anti-mouse IFNγ, R4-6A2. The biotinylated anti-cytokine Abs were as follows: rat anti-mouse IL-10, JES5-16E3 and rat anti-mouse IFNγ, XMG1.2. Both antibodies were purchased from BD Pharmingen (San Diego, Calif.). ELISA for the detection of active TGFβ was preformed using the human TGFβ1 DuoSet kit (R&D systems, Minneapolis, Minn.) according to the manufacturer's instructions. […] All assays were read on a SpectraMAX 190 counter. Graded amounts of recombinant mouse IFNγ, IL-10, and TGFβ were included in all experiments for construction of standard curves. The cytokine concentration in culture supernatants was interpolated from the linear portion of the standard curve.
To test this premise, splenic and islet cells from 14 week old mice were stimulated with agg Ig-INSβ, which induces IL-10 production by the presenting APCs and secretion of IFNγ was measured. Splenic (a) and islet (b) cells (5×10^5 cells/well) from 14 week old female NOD mice were stimulated with the indicated antigen in the presence or absence of 1 ng of rIL-10 for 24 hours. The supernatant (100 μl/well) was used to measure IFNγ by ELISA as indicated in “Materials and Methods”. […]

islet cells = experiment: IFNγ response of islet cells from 14 week old mice; conditions: INSβ peptide 18 μM, Ig-INSβ chimeras 1 μM; 24 hours; no rIL-10
Experimental: as §1
Islet-infiltrating cells were derived from 14 week old female NOD mice by collagenase digestion as previously described (36). […] Viability of the cells was determined by trypan blue exclusion.
To test this premise, splenic and islet cells from 14 week old mice were stimulated with agg Ig-INSβ, which induces IL-10 production by the presenting APCs and secretion of IFNγ was measured. […]

[1] = system: INSβ-specific T cell line; experiment: Presentation to INSβ-specific T cell line ([3H]thymidine proliferation); conditions: irradiated NOD splenic APCs; peptides 10 μM, Ig-chimeras 1 μM; 3-day incubation
Experimental: T cell lines: A T cell line specific for INSβ peptide was generated by immunizing NOD mice with 100 μg of INSβ peptide in 200 μl PBS/CFA (vol/vol) subcutaneously (“s.c.”) in the footpads and at the base of each limb. After 10 days, the draining lymph nodes were removed, and T cells were stimulated in vitro for 2 rounds in the presence of irradiated (3000 rads), syngenic splenocytes, 5% T-Stim supplement (Collaborative Biomedical Products, Bedford, Mass.), and INSβ peptide (25 μg/ml). […]
(§2) Presentation of Ig-INSβ chimera to specific T cells was then determined. […] For presentation of INSβ peptide and Ig-INSβ (FIGS. 2(a) and 2(b) respectively), the activation was assessed by [^3H] thymidine incorporation since the T cells were from a line. Accordingly, 1 μCi [^3H]thymidine per well was added during the last 14 hours of a 3-day incubation period and the cells were harvested, and the radioactivity counted. For presentation of HEL peptide (FIG. 2(c)) and Ig-HEL (FIG. 2(d)), T cell activation was assessed by measuring IL-2 production as the HEL-specific cells were from a hybridoma. Accordingly, after 24 hours incubation IL-2 was measured in 100 μl supernatant by ELISA. […]

HEL-specific hybridoma = experiment: Presentation to HEL-specific T cell hybridoma (IL-2 production); conditions: irradiated NOD splenocytes; peptides 10 μM, Ig-chimeras 1 μM; 24 hours
Experimental: T cell hybridomas: A HEL-specific T cell line was fused with the αβ TCR negative thymoma BW1100 (ATCC) using polyethylene glycol 4000 (Sigma, St. Louis, Mo.). Hybrids were then selected by supplementing the culture media with hypoxanthine-azaserine (Sigma). Resulting hybridomas were then screened for reactivity to HEL peptide by testing for production of IL-2 in the supernatant following stimulation with irradiated (3000 rads) splenocytes in the presence of 15 μg/ml HEL peptide. Positive hybridomas were then cloned by limiting dilution and used to assess presentation of HEL peptide and Ig-HEL chimera.
as §2

Sequence | IFNγ response of splenic T cells (Splenic cells) | IFNγ response of islet T cells (islet cells) | proliferation of the INSβ-specific T cell line [1] | stimulation of HEL-specific hybridoma (IL-2 production) (HEL-specific hybridoma)
SHLVEALYLVCGERG [INSβ peptide] | developed IFNγ responses | developed IFNγ responses | proliferated significantly | 
AMKRHGLDNYRGYSL [HEL peptide] |  |  | unable to induce proliferation | able to stimulate the HEL-specific hybridoma
